Experimental data published in publication PMC10082830, “A tailored tetravalent peptide displays dual functions to inhibit amyloid β production and aggregation” (Communications Biology, 2023).
Bridge positions count the residues as written; N and C are the ends. Square brackets hold non-standard residues; d marks the D form. Peptide text beside a SMILES is read from it. I, II: the chains in the order shown. * marks the point of attachment. Cbz = O=C(OCc1ccccc1)*; Ahx = NCCCCCC(=O)O

Experiments:
Aβ42 = target: T1, Aβ42 (Homo sapiens, UniProt P05067); assay: ELISA binding between Aβ and LME peptides; conditions: Aβ42, n = 3, read-out: apparent Kd
T1 construct: purchased Peptide Institute
Method: (§1) The indicated amounts of LME-tet (8.3 µM) or LME-mono (33 µM) were applied onto each well of a regular 96-well ELISA plate (Thermo Fisher Scientific) and incubated overnight for 24 h. After blocking, the plate was incubated with various concentrations of Aβ1–28, Aβ40, or Aβ42 (Peptide Institute) for 2 h at room temperature. Bound Aβ was detected using mouse monoclonal anti-human Aβ antibody 82E1 (Immuno-Biological Laboratories Co., Ltd.) and HRP-conjugated horse anti-mouse IgG antibody (Cell Signaling Technology).

Aβ40 = target: T2, Aβ40 (Homo sapiens, UniProt P05067); assay: ELISA binding between Aβ and LME peptides; conditions: Aβ40, n = 4, read-out: apparent Kd
T2 construct: purchased Peptide Institute
Method: as §1

7WD10 cells = assay: Incorporation of biotinylated tetravalent peptides into 7WD10 cells, confocal microscopy; type: cell-based, Chinese Hamster; conditions: biotinylated peptide 50 µM, 37 °C, 1 h, Alexa Fluor 488-streptavidin
Method: Supplementary Fig. 10: Efficient incorporation of […] into cells.
7WD10 cells were cultured at 37° C for 1 h in the presence of biotinylated LME-tet or PME-tet
(50 µM). Biotinylated peptide was detected using Alexa Fluor 488-conjugated streptavidin.
Fluorescence images were obtained using confocal laser scanning microscopy to assess the
incorporation of tetravalent peptides into cells. The scale bars indicate 10 µm.

[1] = test system: γ-cleavage of NotchΔE in 7WD10-NotchΔE cells; assay: γ-Secretase assay in cells (NotchΔE cleavage); type: cell-based, Chinese Hamster; conditions: 48 h, cell lysates, western blot with anti-Myc antibody; DAPT 10 µM
Method: (§2) 7WD10 cells were treated with vehicle control or LME-tet at the indicated concentrations for 48 h. Cell lysates were analyzed by western blot. b Effect of LME-tet on production of extracellular sAPPα and sAPPβ Schematic showing α- and β-cleavage sites (top). 7WD10 cells were treated as in (a) and sAPPα and sAPPβ in culture medium were analyzed by western blot (bottom left and right panels, respectively). a, b APP and sAPPα were detected using anti-APP antibody 6E10, and sAPPβ was detected using anti-sAPPβ antibody. Data are graphed as the percentage of the control value, showing the mean ± SE; n = 3–4. Significance vs. vehicle was calculated by ANOVA, followed by one-sided Dunnett’s test; *P < 0.05, **P < 0.01, ***P < 0.001. c Effect of LME-tet on β-cleavage of β-galactoside α-2,6- sialyltransferase 1 (St6gal1) and γ-cleavage of NotchΔE. 7WD10-NotchΔE-St6gal1 cells were treated with LME-tet at the indicated concentrations and β-secretase inhibitor II (βi; 10 µM) for 48 h; culture medium was analyzed by western blot using anti-St6gal1 antibody (left panel). 7WD10-NotchΔE cells were treated with LME-tet at the indicated concentrations and γ-secretase inhibitor DAPT (γi; 10 µM) for 48 h; cell lysates were analyzed by western blot using anti-Myc antibody (right panel). […] Aβ33-FLAG (left) and Aβ (right) were measured by western blot using anti-Aβ antibody 82E1. […]

[2] = test system: β-cleavage of St6gal1 in 7WD10-NotchΔE-St6gal1 cells; assay: β-Secretase assay in cells (St6gal1 cleavage); type: cell-based, Chinese Hamster; conditions: 48 h, culture medium, western blot; β-secretase inhibitor II 10 µM
Method: as §2

T1 sequence (P05067 672-713 limits assumed): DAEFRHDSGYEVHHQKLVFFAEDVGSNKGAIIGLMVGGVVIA
T2 sequence (P05067 672-711 limits assumed): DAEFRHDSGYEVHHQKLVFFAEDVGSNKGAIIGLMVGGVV

CSCC[C@H](NC(=O)[C@H](CCCNC(=N)N)NC(=O)[C@H](CC(C)C)NC(=O)[C@H](CCCCN)NC(=O)[C@@H]1CCCN1)C(=O)N[C@@H](CCCCN)C(=O)N[C@@H](CCC(=O)O)C(=O)NCCCCCC(=O)NCCCC[C@H](NC(=O)CCCCCNC(=O)[C@H](CCC(=O)O)NC(=O)[C@H](CCCCN)NC(=O)[C@H](CCSC)NC(=O)[C@H](CCCNC(=N)N)NC(=O)[C@H](CC(C)C)NC(=O)[C@H](CCCCN)NC(=O)[C@@H]1CCCN1)C(=O)NCCCC[C@H](NC(=O)[C@H](CCCCNC(=O)CCCCCNC(=O)[C@H](CCC(=O)O)NC(=O)[C@H](CCCCN)NC(=O)[C@H](CCSC)NC(=O)[C@H](CCCNC(=N)N)NC(=O)[C@H](CC(C)C)NC(=O)[C@H](CCCCN)NC(=O)[C@@H]1CCCN1)NC(=O)CCCCCNC(=O)[C@H](CCC(=O)O)NC(=O)[C@H](CCCCN)NC(=O)[C@H](CCSC)NC(=O)[C@H](CCCNC(=N)N)NC(=O)[C@H](CC(C)C)NC(=O)[C@H](CCCCN)NC(=O)[C@@H]1CCCN1)C(N)=O [LME-tet] (I: H-PKLRMKE[Ahx]KK-NH2 / II: H-PKLRMKE[Ahx]K / III: H-PKLRMKE[Ahx] / IV: H-PKLRMKE[Ahx]; amide I:9-IV:C, I:10-II:C, II:9-III:C)
Kd (Aβ42): 0.2 µM | Kd (Aβ40): 2.7 µM | efficiency of incorporation into cells (7WD10 cells): much higher efficacy than PME-tet

C[C@H](NC(=O)Cc1cc(F)cc(F)c1)C(=O)N[C@H](C(=O)OC(C)(C)C)c1ccccc1 [DAPT]
production of NICD [1]: efficiently inhibits

CC(C)C[C@@H](C=O)NC(=O)[C@H](CC(C)C)NC(=O)[C@@H](NC(=O)OCc1ccccc1)C(C)C [β-secretase inhibitor II] (Cbz-Val-Leu-Leu-aldehyde)
production of extracellular St6gal1 fragment [2]: completely suppressed
